{"source": "paper PMC5218480", "about": "(PLoS ONE, 2017)", "system": "MV-4-11 cells", "assay": "Gene expression microarray analysis (Affymetrix PrimeView) and GSEA", "format": "cell-based, human", "design": "RFU PODN (11730768_x_at) / Fold change /veh PODN (11730768_x_at) / RFU LINC00158 (11744669_a_at) / Fold change /veh LINC00158 (11744669_a_at) / RFU DUSP10 (11751237_a_at) / Fold change /veh DUSP10 (11751237_a_at) / RFU ID3 (11757404_x_at) / Fold change /veh ID3 (11757404_x_at) / RFU PLEKHG5 (11737974_s_at) / Fold change /veh PLEKHG5 (11737974_s_at) / RFU LRRC4B (11730491_at) / Fold change /veh LRRC4B (11730491_at) / RFU GIMAP4 (11747438_a_at) / Fold change /veh GIMAP4 (11747438_a_at) / RFU KRT8 (11758183_x_at) / Fold change /veh KRT8 (11758183_x_at) / RFU CNN1 (11734310_a_at) / Fold change /veh CNN1 (11734310_a_at) / RFU VPS37D (11726825_at) / Fold change /veh VPS37D (11726825_at) / RFU C10orf10 (11716522_x_at) / Fold change /veh C10orf10 (11716522_x_at) / RFU KIR2DL2 /// KIR2DL4 /// KIR2DL5A /// KIR2DL5B /// KIR2DS1 /// KIR2DS2 /// KIR2DS3 /// KIR2DS4 /// KIR3DL3 /// KIR3DL3 /// KIR3DS1 (11738374_at) / Fold change /veh KIR2DL2 /// KIR2DL4 /// KIR2DL5A /// KIR2DL5B /// KIR2DS1 /// KIR2DS2 /// KIR2DS3 /// KIR2DS4 /// KIR3DL3 /// KIR3DL3 /// KIR3DS1 (11738374_at) / RFU C1QL1 (11718748_at) / Fold change /veh C1QL1 (11718748_at) / RFU TMPRSS4 (11747572_a_at) / Fold change /veh TMPRSS4 (11747572_a_at) / RFU HAMP (11756126_x_at) / Fold change /veh HAMP (11756126_x_at) / RFU RNFT2 (11725882_a_at) / Fold change /veh RNFT2 (11725882_a_at) / RFU NR4A2 (11747474_a_at) / Fold change /veh NR4A2 (11747474_a_at) / RFU ABCC12 (11746883_a_at) / Fold change /veh ABCC12 (11746883_a_at) / RFU TMEM136 (11760407_x_at) / Fold change /veh TMEM136 (11760407_x_at) / RFU CLDN22 /// WWC2 (11732394_at) / Fold change /veh CLDN22 /// WWC2 (11732394_at) / RFU HLA-DPB1 (11760878_x_at) / Fold change /veh HLA-DPB1 (11760878_x_at) / RFU SPINT1 (11716480_a_at) / Fold change /veh SPINT1 (11716480_a_at) / RFU GAP43 (11754022_s_at) / Fold change /veh GAP43 (11754022_s_at) / RFU A4GNT (11735810_at) / Fold change /veh A4GNT (11735810_at) / RFU PRB3 (11715151_x_at) / Fold change /veh PRB3 (11715151_x_at) / RFU TUBB4B (11761932_at) / Fold change /veh TUBB4B (11761932_at) / RFU CAPN14 (11732068_a_at) / Fold change /veh CAPN14 (11732068_a_at) / RFU TMCC2 (11721928_a_at) / Fold change /veh TMCC2 (11721928_a_at) / RFU IRGQ (11745062_a_at) / Fold change /veh IRGQ (11745062_a_at) / RFU FAM174B (11720279_a_at) / Fold change /veh FAM174B (11720279_a_at) / RFU TMPRSS4 (11748680_a_at) / Fold change /veh TMPRSS4 (11748680_a_at) / RFU FAM212B (11763350_a_at) / Fold change /veh FAM212B (11763350_a_at) / RFU PLEKHG5 (11743358_a_at) / Fold change /veh PLEKHG5 (11743358_a_at) / RFU ZSCAN30 (11745921_a_at) / Fold change /veh ZSCAN30 (11745921_a_at) / RFU CMKLR1 (11741424_a_at) / Fold change /veh CMKLR1 (11741424_a_at) / RFU LOC101060620 /// MAPK8IP1 (11723275_at) / Fold change /veh LOC101060620 /// MAPK8IP1 (11723275_at) / RFU SPTSSB (11747773_x_at) / Fold change /veh SPTSSB (11747773_x_at) / RFU PRSS12 (11739890_at) / Fold change /veh PRSS12 (11739890_at) / RFU BIN1 (11741810_x_at) / Fold change /veh BIN1 (11741810_x_at) / RFU WNT11 (11732464_a_at) / Fold change /veh WNT11 (11732464_a_at) / RFU C10orf10 (11716521_a_at) / Fold change /veh C10orf10 (11716521_a_at) / RFU C5orf56 (11738089_at) / Fold change /veh C5orf56 (11738089_at) / RFU CYB561 (11721691_x_at) / Fold change /veh CYB561 (11721691_x_at) / RFU ANKRD19P (11752326_a_at) / Fold change /veh ANKRD19P (11752326_a_at) / RFU OR2T12 /// OR2T33 /// OR2T8 (11738714_s_at) / Fold change /veh OR2T12 /// OR2T33 /// OR2T8 (11738714_s_at) / RFU VCAN (11748164_a_at) / Fold change /veh VCAN (11748164_a_at) / RFU JSRP1 (11732532_at) / Fold change /veh JSRP1 (11732532_at) / RFU KRTAP10-11 (11738290_x_at) / Fold change /veh KRTAP10-11 (11738290_x_at) / RFU MYO3A (11730013_a_at) / Fold change /veh MYO3A (11730013_a_at) / RFU EBF3 (11725865_a_at) / Fold change /veh EBF3 (11725865_a_at) / RFU CAMK2N1 (11719241_x_at) / Fold change /veh CAMK2N1 (11719241_x_at) / RFU C5orf56 (11738088_a_at) / Fold change /veh C5orf56 (11738088_a_at) / RFU OLFML3 (11715873_a_at) / Fold change /veh OLFML3 (11715873_a_at) / RFU LOC100653217 /// NTM (11731650_a_at) / Fold change /veh LOC100653217 /// NTM (11731650_a_at) / RFU MAPK11 (11762145_a_at) / Fold change /veh MAPK11 (11762145_a_at) / RFU FIZ1 (11724087_x_at) / Fold change /veh FIZ1 (11724087_x_at) / RFU OASL (11726364_x_at) / Fold change /veh OASL (11726364_x_at) / RFU SOX15 (11748057_x_at) / Fold change /veh SOX15 (11748057_x_at) / RFU CD79A (11719716_a_at) / Fold change /veh CD79A (11719716_a_at) / RFU HIST1H1D (11736915_at) / Fold change /veh HIST1H1D (11736915_at) / RFU CASKIN2 (11723855_a_at) / Fold change /veh CASKIN2 (11723855_a_at) / RFU LOC730098 (11760151_x_at) / Fold change /veh LOC730098 (11760151_x_at) / RFU OR4N2 (11742367_at) / Fold change /veh OR4N2 (11742367_at) / RFU PRRT2 (11749266_a_at) / Fold change /veh PRRT2 (11749266_a_at) / RFU SNX32 (11753110_a_at) / Fold change /veh SNX32 (11753110_a_at) / RFU CDHR5 (11726645_a_at) / Fold change /veh CDHR5 (11726645_a_at) / RFU RCAN1 (11760418_a_at) / Fold change /veh RCAN1 (11760418_a_at) / RFU FAM167A (11723789_a_at) / Fold change /veh FAM167A (11723789_a_at) / RFU FAM26E (11764081_at) / Fold change /veh FAM26E (11764081_at) / RFU ISYNA1 (11749810_s_at) / Fold change /veh ISYNA1 (11749810_s_at) / RFU ACY1 (11761880_at) / Fold change /veh ACY1 (11761880_at) / RFU 11764098_at / Fold change /veh 11764098_at / RFU SAMD14 (11745864_x_at) / Fold change /veh SAMD14 (11745864_x_at) / RFU NPB (11741838_a_at) / Fold change /veh NPB (11741838_a_at) / RFU TMPRSS6 (11731388_a_at) / Fold change /veh TMPRSS6 (11731388_a_at) / RFU KRTAP10-2 (11738614_at) / Fold change /veh KRTAP10-2 (11738614_at) / RFU ARHGAP8 /// PRR5-ARHGAP8 (11727945_x_at) / Fold change /veh ARHGAP8 /// PRR5-ARHGAP8 (11727945_x_at) / RFU KRTAP5-7 /// NADSYN1 (11734609_at) / Fold change /veh KRTAP5-7 /// NADSYN1 (11734609_at) / RFU RASL12 (11751679_a_at) / Fold change /veh RASL12 (11751679_a_at) / RFU CDKN2B (11736163_a_at) / Fold change /veh CDKN2B (11736163_a_at) / RFU PRF1 (11729649_at) / Fold change /veh PRF1 (11729649_at) / RFU, ZNF638 /// ZNF638-IT1 / Fold change vs veh, ZNF638 /// ZNF638-IT1 / RFU, PANK3 / Fold change vs veh, PANK3 / RFU, SH3YL1 / Fold change vs veh, SH3YL1 / RFU, ZEB2 / Fold change vs veh, ZEB2 / RFU, NRIP1 / Fold change vs veh, NRIP1 / RFU, PTTG1IP / Fold change vs veh, PTTG1IP / RFU, CAPN2 / Fold change vs veh, CAPN2 / RFU, MED14 / Fold change vs veh, MED14 / RFU, SNORA58 / Fold change vs veh, SNORA58 / RFU, C1orf63 / Fold change vs veh, C1orf63 / RFU, LRRFIP1 / Fold change vs veh, LRRFIP1 / RFU, NDUFAF7 / Fold change vs veh, NDUFAF7 / RFU, SLC12A2 / Fold change vs veh, SLC12A2 / RFU, IBTK / Fold change vs veh, IBTK / RFU, ESF1 / Fold change vs veh, ESF1 / Fold change vs veh, TMEM50B / RFU, TAOK1 / Fold change vs veh, TAOK1 / RFU, ACBD3 / Fold change vs veh, ACBD3 / RFU, TMA16 / Fold change vs veh, TMA16 / RFU, RWDD3 / Fold change vs veh, RWDD3 / RFU, BCAT1 / Fold change vs veh, BCAT1 / RFU, EDEM3 / Fold change vs veh, EDEM3 / RFU, TMEM33 / Fold change vs veh, TMEM33 / RFU, WDR75 / Fold change vs veh, WDR75 / RFU, AHCTF1 / Fold change vs veh, AHCTF1 / RFU, TFRC / Fold change vs veh, TFRC / RFU, ZDHHC17 / Fold change vs veh, ZDHHC17 / RFU, NOM1 / Fold change vs veh, NOM1 / RFU, ARL8B / Fold change vs veh, ARL8B / RFU, ZBTB11 / Fold change vs veh, ZBTB11 / RFU, TAMM41 / Fold change vs veh, TAMM41 / RFU, KIAA1704 /// LOC100996395 / Fold change vs veh, KIAA1704 /// LOC100996395 / RFU, ING1 / Fold change vs veh, ING1 / RFU, TRMT61B / Fold change vs veh, TRMT61B / RFU, FUBP3 / Fold change vs veh, FUBP3 / RFU, TP53 / Fold change vs veh, TP53 / RFU, TNKS2 / Fold change vs veh, TNKS2 / RFU, ZFP14 / Fold change vs veh, ZFP14 / RFU, ACTR2 / Fold change vs veh, ACTR2 / RFU, PPP3R1 / Fold change vs veh, PPP3R1 / RFU, PIK3R1 / Fold change vs veh, PIK3R1 / RFU, HNRNPA1 / Fold change vs veh, HNRNPA1 / RFU, RNF170 / Fold change vs veh, RNF170 / RFU, ZNF28 / Fold change vs veh, ZNF28 / RFU, RNGTT / Fold change vs veh, RNGTT / RFU, OGT / Fold change vs veh, OGT / RFU, BRD1 / Fold change vs veh, BRD1 / RFU, MARS / Fold change vs veh, MARS / RFU, ZNF655 / Fold change vs veh, ZNF655 / RFU, FAHD1 / Fold change vs veh, FAHD1 / RFU, BDP1 / Fold change vs veh, BDP1 / RFU, LRRCC1 / Fold change vs veh, LRRCC1 / RFU, ARID1A / Fold change vs veh, ARID1A / RFU, ZNF146 / Fold change vs veh, ZNF146 / RFU, ZNF330 / Fold change vs veh, ZNF330 / RFU, GPN3 / Fold change vs veh, GPN3 / RFU, C9orf123 / Fold change vs veh, C9orf123 / RFU, N4BP2L2 / Fold change vs veh, N4BP2L2 / RFU, ARFIP1 / Fold change vs veh, ARFIP1 / RFU, FAM179B / Fold change vs veh, FAM179B / RFU, BCL10 / Fold change vs veh, BCL10 / RFU, UHRF1BP1L / Fold change vs veh, UHRF1BP1L / RFU, BET1 / Fold change vs veh, BET1 / RFU, CNOT2 / Fold change vs veh, CNOT2 / RFU, ZNF268 / Fold change vs veh, ZNF268 / Fold change vs veh, ZNF507 / RFU, DGCR2 / Fold change vs veh, DGCR2 / RFU, WDSUB1 / Fold change vs veh, WDSUB1 / Fold change vs veh, HSP90B1 /// MIR3652 / RFU, ADSS / Fold change vs veh, ADSS / RFU, GK / Fold change vs veh, GK / RFU, ZNF148 / Fold change vs veh, ZNF148 / RFU, TAF9 / Fold change vs veh, TAF9 / RFU, SLC1A5 / Fold change vs veh, SLC1A5 / RFU, SLMO2 / Fold change vs veh, SLMO2 / RFU, ABCC4 / Fold change vs veh, ABCC4 / RFU, LOC101060439 /// RAP1B / Fold change vs veh, LOC101060439 /// RAP1B / RFU, RFX7 / Fold change vs veh, RFX7 / RFU, GTPBP10 / Fold change vs veh, GTPBP10 / RFU, CNEP1R1 / Fold change vs veh, CNEP1R1 / RFU, BIVM-ERCC5 /// ERCC5 / Fold change vs veh, BIVM-ERCC5 /// ERCC5 / RFU, ILF3 / Fold change vs veh, ILF3 / RFU 11762660_at / Fold change /veh 11762660_at / RFU VCAN (11757783_s_at) / Fold change /veh VCAN (11757783_s_at) / RFU DDX43 (11728927_at) / Fold change /veh DDX43 (11728927_at) / RFU KRT8 (11758188_x_at) / Fold change /veh KRT8 (11758188_x_at) / RFU NKD1 (11759106_at) / Fold change /veh NKD1 (11759106_at) / RFU SRD5A1 (11742802_a_at) / Fold change /veh SRD5A1 (11742802_a_at) / RFU TPSAB1 /// TPSB2 (11721975_s_at) / Fold change /veh TPSAB1 /// TPSB2 (11721975_s_at) / RFU GSTM3 (11746129_a_at) / Fold change /veh GSTM3 (11746129_a_at) / RFU IL23R (11737362_x_at) / Fold change /veh IL23R (11737362_x_at) / RFU TMEM51 (11727254_a_at) / Fold change /veh TMEM51 (11727254_a_at) / RFU PIWIL2 (11732686_x_at) / Fold change /veh PIWIL2 (11732686_x_at) / RFU ORM1 (11744905_x_at) / Fold change /veh ORM1 (11744905_x_at) / RFU CCDC152 (11743942_at) / Fold change /veh CCDC152 (11743942_at) / RFU ECM1 (11717891_a_at) / Fold change /veh ECM1 (11717891_a_at) / RFU IL23R (11748794_a_at) / Fold change /veh IL23R (11748794_a_at) / RFU TNFAIP8L3 (11732012_x_at) / Fold change /veh TNFAIP8L3 (11732012_x_at) / RFU MBOAT4 (11741988_at) / Fold change /veh MBOAT4 (11741988_at) / RFU 11764193_at / Fold change /veh 11764193_at / RFU TMEM53 (11763286_at) / Fold change /veh TMEM53 (11763286_at) / RFU MAGEB2 (11727129_at) / Fold change /veh MAGEB2 (11727129_at) / RFU TMEM200A (11744735_a_at) / Fold change /veh TMEM200A (11744735_a_at) / RFU CCDC152 (11751479_a_at) / Fold change /veh CCDC152 (11751479_a_at) / RFU FAM211A (11726209_a_at) / Fold change /veh FAM211A (11726209_a_at) / RFU RGS16 (11746705_a_at) / Fold change /veh RGS16 (11746705_a_at) / RFU VCAN (11755009_s_at) / Fold change /veh VCAN (11755009_s_at) / RFU RHOB (11743442_s_at) / Fold change /veh RHOB (11743442_s_at) / RFU RGS16 (11720943_a_at) / Fold change /veh RGS16 (11720943_a_at) / RFU RGS16 (11720944_at) / Fold change /veh RGS16 (11720944_at) / RFU, VPS4B / Fold change vs veh, VPS4B / RFU, CREB1 / Fold change vs veh, CREB1 / RFU, DNAJC13 / Fold change vs veh, DNAJC13 / RFU, GNAQ / Fold change vs veh, GNAQ / RFU, CDK5R1 / Fold change vs veh, CDK5R1 / RFU, ZRANB3 / Fold change vs veh, ZRANB3 / RFU, CUL4A / Fold change vs veh, CUL4A / RFU, CCNY / Fold change vs veh, CCNY / RFU, UFL1 / Fold change vs veh, UFL1 / RFU, COG3 / Fold change vs veh, COG3 / RFU, DIAPH2 / Fold change vs veh, DIAPH2 / RFU, SKA2 / Fold change vs veh, SKA2 / RFU, AFF3 / Fold change vs veh, AFF3 / RFU, LMF1 / Fold change vs veh, LMF1 / RFU, IPO11 / Fold change vs veh, IPO11 / RFU, DFFB / Fold change vs veh, DFFB / RFU, FOXP1 / Fold change vs veh, FOXP1 / RFU, CARD8 / Fold change vs veh, CARD8 / RFU, STRN3 / Fold change vs veh, STRN3 / RFU, ADK / Fold change vs veh, ADK / RFU, RASSF2 / Fold change vs veh, RASSF2 / RFU, WIPF1 / Fold change vs veh, WIPF1 / RFU, LARP1B / Fold change vs veh, LARP1B / RFU, RASA1 / Fold change vs veh, RASA1 / RFU, RB1 / Fold change vs veh, RB1 / RFU, PPFIA1 / Fold change vs veh, PPFIA1 / RFU, MAT2A / Fold change vs veh, MAT2A / RFU, CCT5 / Fold change vs veh, CCT5 / RFU, WDR92 / Fold change vs veh, WDR92 / RFU, CUX1 / Fold change vs veh, CUX1 / RFU, TTC7A / Fold change vs veh, TTC7A / RFU, TMEM135 / Fold change vs veh, TMEM135 / RFU, DEPTOR / Fold change vs veh, DEPTOR / RFU, CPM / Fold change vs veh, CPM / RFU, DNAJB6 / Fold change vs veh, DNAJB6 / RFU, CACNA2D3 / Fold change vs veh, CACNA2D3 / RFU, DTX4 / Fold change vs veh, DTX4 / RFU, TFCP2 / Fold change vs veh, TFCP2 / RFU, GMCL1 /// GMCL1P1 / Fold change vs veh, GMCL1 /// GMCL1P1 / RFU, AEBP2 / Fold change vs veh, AEBP2 / RFU, SNHG1 /// SNORD22 /// SNORD25 /// SNORD26 /// SNORD27 /// SNORD28 /// SNORD29 /// SNORD31 / Fold change vs veh, SNHG1 /// SNORD22 /// SNORD25 /// SNORD26 /// SNORD27 /// SNORD28 /// SNORD29 /// SNORD31 / Fold change (Aza/veh), C12orf56 (ProbeSet 11735607_a_at) / Fold change (ACY-1035/veh), C12orf56 (ProbeSet 11735607_a_at) / Fold change (Aza/veh), FGFR1OP (ProbeSet 11751329_s_at) / Fold change (ACY-1035/veh), FGFR1OP (ProbeSet 11751329_s_at) / Fold change (Aza/veh), VPS36 (ProbeSet 11739960_a_at) / Fold change (ACY-1035/veh), VPS36 (ProbeSet 11739960_a_at) / RFU SYPL1 (11715823_x_at) / Fold change /veh SYPL1 (11715823_x_at) / RFU IGFBP7 (11715501_s_at) / Fold change /veh IGFBP7 (11715501_s_at) / RFU REEP3 (11722064_at) / Fold change /veh REEP3 (11722064_at) / RFU IGLL1 (11728026_x_at) / Fold change /veh IGLL1 (11728026_x_at): dose or concentration left out as unconfirmed", "conditions": "ProbeSet 11733108_at; LIST D", "data": [{"smiles": "Nc1ccc(-c2cccs2)cc1NC(=O)c1ccc2c(c1)cc(C1CC1)n2CCN1CCOCC1", "note": "[ACY-1035]", "values": [{"measurement": "RFU, GNAQ", "value": 275.03, "unit": "RFU"}]}]}
